Experiment [1] addresses T1, h-TGR5 (Homo sapiens, UniProt Q8TDU6).
T1 sequence (Q8TDU6 1-330): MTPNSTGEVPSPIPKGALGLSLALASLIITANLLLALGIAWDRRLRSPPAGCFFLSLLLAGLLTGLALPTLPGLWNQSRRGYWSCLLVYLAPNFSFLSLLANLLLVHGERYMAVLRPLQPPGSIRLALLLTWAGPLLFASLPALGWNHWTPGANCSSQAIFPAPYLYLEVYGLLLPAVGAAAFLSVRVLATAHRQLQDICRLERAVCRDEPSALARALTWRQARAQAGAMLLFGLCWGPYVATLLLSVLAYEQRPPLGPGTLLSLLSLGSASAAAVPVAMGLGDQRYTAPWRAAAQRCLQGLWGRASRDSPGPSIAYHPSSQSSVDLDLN
Kind of experiment: TGR5 cAMP Assay using Cisbio cAMP Dynamic 2 htrf assay kit. In kind it is cell-based. As to conditions: hTGR5CRE-luc HEK 293 cells.

Experiment [2] deals with T2, human TGR5 (h-TGR5) (Homo sapiens, UniProt Q8TDU6).
T2 sequence (Q8TDU6 1-330): T1 sequence (Q8TDU6 1-330)
Kind of experiment: TGR5/CRE-Luciferase Assay. The settings on record: HEK 293 hTGR5/CRE-Luc cells, 6 hours incubation, read-out: CRE-Luc Agonist (EC50). In kind it is cell-based. In short, it runs like this:
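HEK 293 CRE-Luciferase cells stably expressing the receptor, plated in DMEM 18-20 h before assay, then exposed to serially diluted compounds (DMEM with 5% DMSO) for 6 h. Luciferase read-out after lysis; EC50 from dose-response.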

Where only a bound is given, the exact number is not on record here.

On to `COc1cc(C(C)(C)c2cnc(SCc3c(F)cc(S(=O)(=O)NCC[N+](C)(C)C)cc3F)n2-c2ccc(F)cc2)ccc1Cl` [Example 6k, 2-({[4-({[5-{1-[4-chloro-3-(methyloxy)phenyl]-1-methylethyl}-1-(4-fluorophenyl)-1H-imidazol-2-yl]thio}methyl)-3,5-difluorophenyl]sulfonyl}amino)-N,N,N-trimethylethanaminium], for which the EC50 in experiment [1] and in experiment [2] was less than 0.1 µM throughout.
As to `COc1cc(C(C)(C)c2cnc(SCc3ccc(Cl)c(S(=O)(=O)NCCC[N+](C)(C)C)c3)n2-c2ccc(F)cc2)ccc1Cl` [Example 6l, 3-({[2-chloro-5-({[5-{1-[4-chloro-3-(methyloxy)phenyl]-1-methylethyl}-1-(4-fluorophenyl)-1H-imidazol-2-yl]thio}methyl)phenyl]sulfonyl}amino)-N,N,N-trimethylpropan-1-aminium], the EC50 in experiment [1] and in experiment [2] was less than 0.1 µM throughout.
In the case of `CC[N+](CC)(CC)CCCNS(=O)(=O)c1cc(F)c(CSc2ncc(C(C)(C)c3ccc(Cl)c(OC)c3)n2-c2ccc(F)cc2)c(F)c1` [Example 6m, 3-({[4-({[5-{1-[4-chloro-3-(methyloxy)phenyl]-1-methylethyl}-1-(4-fluorophenyl)-1H-imidazol-2-yl]thio}methyl)-3,5-difluorophenyl]sulfonyl}amino)-N,N,N-triethylpropan-1-aminium], the 50% effective concentration (EC50) in experiment [1] and in experiment [2] was less than 0.1 µM throughout.
Regarding `COc1ccc(C(C)(C)c2cnc(SCc3c(F)cc(S(=O)(=O)NCCC[N+](C)(C)C)cc3F)n2-c2ccc(F)cc2)cc1Cl` [Example 6n, 3-({[4-({[5-{1-[3-chloro-4-(methyloxy)phenyl]-1-methylethyl}-1-(4-fluorophenyl)-1H-imidazol-2-yl]thio}methyl)-3,5-difluorophenyl]sulfonyl}amino)-N,N,N-trimethylpropan-1-aminium], the EC50 in experiment [1] and in experiment [2] was less than 0.1 µM in each case.
For `CC[N+](CC)(CC)CCCNS(=O)(=O)c1cc(F)c(CSc2ncc(C(C)(C)c3ccc(F)c(OC)c3)n2-c2ccc(F)cc2)c(Cl)c1` [Example 6o, 3-({[3-chloro-5-fluoro-4-({[5-{1-[4-fluoro-3-(methyloxy)phenyl]-1-methylethyl}-1-(4-fluorophenyl)-1H-imidazol-2-yl]thio}methyl)phenyl]sulfonyl}amino)-N,N,N-triethylpropan-1-aminium], the EC50 in experiment [1] and in experiment [2] was less than 0.1 µM throughout.
As to `COc1cc(C(C)(C)c2cnc(SCc3cc(S(=O)(=O)N(CCC[N+](C)(C)C)CCC[N+](C)(C)C)c(F)cc3Cl)n2-c2ccc(F)cc2)ccc1Cl` [Example 6p, 3,3′-({[4-chloro-5-({[5-{1-[4-chloro-3-(methyloxy)phenyl]-1-methylethyl}-1-(4-fluorophenyl)-1H-imidazol-2-yl]thio}methyl)-2-fluorophenyl]sulfonyl}imino)bis(N,N,N-trimethylpropan-1-aminium)], the EC50 in experiment [1] and in experiment [2] was 0.1 to 1 µM in each case.
With `COc1cc(C(C)(C)c2cnc(SCc3cc(S(=O)(=O)NCCC[N+](C)(C)C)c(Cl)cc3F)n2-c2ccc(F)cc2)ccc1Cl` [Example 6q, 3-({[2-chloro-5-({[5-{1-[4-chloro-3-(methyloxy)phenyl]-1-methylethyl}-1-(4-fluorophenyl)-1H-imidazol-2-yl]thio}methyl)-4-fluorophenyl]sulfonyl}amino)-N,N,N-trimethylpropan-1-aminium], the EC50 in experiment [1] and in experiment [2] was less than 0.1 µM throughout.
In the case of `COc1cc(C(C)(C)c2cnc(SCc3c(F)cc(S(=O)(=O)NCCCC[N+](C)(C)C)cc3F)n2-c2ccc(F)cc2)ccc1Cl` [Example 6r, 4-({[4-({[5-{1-[4-chloro-3-(methyloxy)phenyl]-1-methylethyl}-1-(4-fluorophenyl)-1H-imidazol-2-yl]thio}methyl)-3,5-difluorophenyl]sulfonyl}amino)-N,N,N-trimethylbutan-1-aminium], the EC50 in experiment [1] and in experiment [2] was less than 0.1 µM each time.
As to `COc1cc(C(C)(C)c2cnc(SCc3cc(S(=O)(=O)NCCC[N+](C)(C)C)c(F)cc3Cl)n2-c2ccc(F)cc2)ccc1Cl` [Example 7, 3-(4-Chloro-5-((5-(2-(4-chloro-3-methoxyphenyl)propan-2-yl)-1-(4-fluorophenyl)-1H-imidazol-2-ylthio)methyl)-2-fluorophenylsulfonamido)-N,N,N-trimethylpropan-1-aminium 2,2,2-trifluoroacetate], the EC50 in experiment [1] and in experiment [2] was less than 0.1 µM throughout.
For the compound `COc1cc(C(C)(C)c2cnc(SCc3c(F)ccc(S(=O)(=O)NCCC[N+](C)(C)C)c3F)n2-c2ccc(F)cc2)ccc1Cl` [Example 7a, 3-({[3-({[5-{1-[4-chloro-3-(methyloxy)phenyl]-1-methylethyl}-1-(4-fluorophenyl)-1H-imidazol-2-yl]thio}methyl)-2,4-difluorophenyl]sulfonyl}amino)-N,N,N-trimethylpropan-1-aminium], the EC50 in experiment [1] and in experiment [2] was less than 0.1 µM throughout.
As to `CC[N+](CC)(CC)CCCNC(=O)NS(=O)(=O)c1cc(F)c(CSc2ncc(C(C)(C)c3ccc(Cl)c(OC)c3)n2-c2ccc(F)cc2)c(F)c1` [Example 8, 3-(3-(4-((5-(2-(4-Chloro-3-methoxyphenyl)propan-2-yl)-1-(4-fluorophenyl)-1H-imidazol-2-ylthio)methyl)-3,5-difluorophenylsulfonyl)ureido)-N,N,N-triethylpropan-1-aminium 2,2,2-trifluoroacetate], the EC50 in experiment [1] and in experiment [2] was less than 0.1 µM throughout.
In the case of `COc1cc(C(C)(C)c2cnc(SCc3c(F)cc(S(=O)(=O)NCCC[n+]4ccccc4)cc3Cl)n2-c2ccc(F)cc2)ccc1F` [Example 9, 1-(3-(3-chloro-5-fluoro-4-((5-(2-(4-fluoro-3-methoxyphenyl)propan-2-yl)-1-(4-fluorophenyl)-1H-imidazol-2-ylthio)methyl)phenylsulfonamido)propyl)pyridinium methanesulfonate], the 50% effective concentration (EC50) in experiment [1] and in experiment [2] was less than 0.1 µM in each case.
For the compound `COc1cc(C(C)(C)c2cnc(SCc3c(F)cc(S(=O)(=O)N(CCC[N+](C)(C)C)CC(=O)O)cc3F)n2-c2ccc(F)cc2)ccc1Cl` [Example 12], the concentration for a half-maximal effect (EC50) in experiment [1] and in experiment [2] was less than 0.1 µM each time.

The values are drawn from patent US8846739B2, “TGR5 agonists” (Exelixis Patent Company LLC, priority 2009, dated 2014).
